These results are taken from article PMC3411110, “AdpA, key regulator for morphological differentiation regulates bacterial chromosome replication” (Open Biology, 2012).

SMILES strings stand for the structures.

The target in experiment [1] is T1, AdpA (AdpAHis6) (Streptomyces coelicolor, UniProt Q9L062). In words: effect on AdpA-oriC complex formation. The note with it: inhibits DNA binding; direct ADP binding not measured.
Experiment [2] addresses T1, AdpA (AdpAHis6). In words: SPR of AdpA on immobilised oriC DNA; glutaraldehyde cross-linking of AdpA-oriC complexes. The conditions noted are these: 3 mM ATP in SPR, increasing ATP in cross-linking with 100 nM AdpA; HBS200 buffer pH 7.4, 10 mM MgOAc; 283-bp oriC fragment; inhibits DNA binding; direct ATP binding not measured.
Experiment [3] deals with DnaA (DnaAHis6) (Streptomyces coelicolor, UniProt P27902). The experiment can be described thus: SPR of DnaA on immobilised oriC DNA with and without ATP. The conditions noted are these: 3 mM ATP; HBS200 buffer pH 7.4, 10 mM MgOAc; 283-bp oriC fragment; promotes DNA binding; direct ATP binding not measured.
DnaA (DnaAHis6), sequence (P27902 whole entry, the tested form may be a part): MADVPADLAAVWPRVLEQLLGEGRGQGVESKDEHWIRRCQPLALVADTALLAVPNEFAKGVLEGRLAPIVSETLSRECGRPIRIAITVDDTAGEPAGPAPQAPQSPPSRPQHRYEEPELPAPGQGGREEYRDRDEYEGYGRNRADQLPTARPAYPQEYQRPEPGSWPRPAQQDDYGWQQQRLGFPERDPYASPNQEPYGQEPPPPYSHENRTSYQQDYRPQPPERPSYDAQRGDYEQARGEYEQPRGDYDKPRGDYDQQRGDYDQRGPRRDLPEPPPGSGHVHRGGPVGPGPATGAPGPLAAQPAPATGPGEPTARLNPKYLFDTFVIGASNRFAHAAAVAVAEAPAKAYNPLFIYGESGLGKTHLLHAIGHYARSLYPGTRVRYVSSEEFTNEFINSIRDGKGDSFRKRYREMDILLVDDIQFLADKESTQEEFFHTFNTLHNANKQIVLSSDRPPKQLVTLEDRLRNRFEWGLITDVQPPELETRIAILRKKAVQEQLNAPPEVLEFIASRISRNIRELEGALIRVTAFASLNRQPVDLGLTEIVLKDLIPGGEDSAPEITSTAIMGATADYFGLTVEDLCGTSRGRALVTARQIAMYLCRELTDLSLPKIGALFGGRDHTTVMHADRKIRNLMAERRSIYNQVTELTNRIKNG

T1 sequence (Q9L062 entry or part of it): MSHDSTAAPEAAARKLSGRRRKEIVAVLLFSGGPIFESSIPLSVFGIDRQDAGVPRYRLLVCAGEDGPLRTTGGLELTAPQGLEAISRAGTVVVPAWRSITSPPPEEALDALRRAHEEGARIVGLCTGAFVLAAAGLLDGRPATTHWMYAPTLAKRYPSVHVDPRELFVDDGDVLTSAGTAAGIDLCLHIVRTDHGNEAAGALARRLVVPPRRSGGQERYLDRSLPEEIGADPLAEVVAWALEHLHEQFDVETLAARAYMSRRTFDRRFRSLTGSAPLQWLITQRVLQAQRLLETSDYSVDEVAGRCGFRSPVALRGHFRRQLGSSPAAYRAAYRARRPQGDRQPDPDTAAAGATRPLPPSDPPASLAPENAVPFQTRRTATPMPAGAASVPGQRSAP

As to `Nc1ncnc2c1ncn2[C@@H]1O[C@H](COP(=O)(O)OP(=O)(O)O)[C@@H](O)[C@H]1O` [ADP], the “effect on AdpA-oriC complex formation” value in experiment [1] was “a similar effect was also observed in the presence of ADP”. Turning to `Nc1ncnc2c1ncn2[C@@H]1O[C@H](COP(=O)(O)OP(=O)(O)OP(=O)(O)O)[C@@H](O)[C@H]1O` [ATP], the “SPR of AdpA on immobilised oriC DNA; glutaraldehyde cross-linking of AdpA-oriC c” value in experiment [2] is listed as “ATP at the same concentration used for DnaA-binding experiments nearly completely abolished binding of AdpA”. For the same compound, in experiment [3], the “SPR of DnaA on immobilised oriC DNA with and without ATP” value is recorded as “binds DnaA box(es), particularly weak ones, more efficiently in the presence of ATP”.
